Test system: 996289-038-R-J1-PDC spheroid viability
Test: Anticancer human tumor 996289-038-R-J1-PDC patient-derived colon adenocarcinoma cell line growth inhibition [PI3K]
Settings: spheroids with HUVEC and MSC; for IC50: curve of first compound; for viability, T/C: stronger effect = lower value
Summary of the method: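 Targeted small molecules plus PI3K inhibitors, half-log dose series from Cmax (default top 10 microM), were applied to heterotypic spheroids of cancer cells with HUVEC and MSCs. Viability indicated growth inhibition.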
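Also: spheroids exposed to compounds for seven days before viability read.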
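For viability, T/C in this document: luminescence used as a proxy for viable cell amount; percent viability relative to DMSO vehicle control as 100%.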

`CCN1CCN(Cc2ccc(Nc3ncc(F)c(-c4cc(F)c5nc(C)n(C(C)C)c5c4)n3)nc2)CC1` + COc1c(OCCCN2CCOCC2)ccc2c3n(c(=NC(=O)c4cnc(N)nc4)nc12)CCN3 was tested, and the IC50 (second compound 0.00316 µM) was greater than 1000 nM, the IC50 (second compound 0.01 µM) was greater than 1000 nM and the IC50 (second compound 0.0316 µM) was greater than 1000 nM. The IC50 (second compound 0.1 µM) was 41.2 nM, the IC50 (second compound 0.316 µM) was less than 3.16 nM and the IC50 (second compound 1 µM) was less than 3.16 nM. For the same compound, the viability, T/C (second compound 0.00316 µM, first compound 0.00316 µM) was 107%, the viability, T/C (second compound 0.00316 µM, first compound 0.01 µM) was 90.6% and the viability, T/C (second compound 0.00316 µM, first compound 0.0316 µM) was 92.6%. The viability, T/C (second compound 0.00316 µM, first compound 0.1 µM) was 97.2%, the viability, T/C (second compound 0.00316 µM, first compound 0.316 µM) was 82.9% and the viability, T/C (second compound 0.00316 µM, first compound 1 µM) was 75.8%. The viability, T/C (second compound 0.01 µM, first compound 0.00316 µM) was 105%, the viability, T/C (second compound 0.01 µM, first compound 0.01 µM) was 80.7% and the viability, T/C (second compound 0.01 µM, first compound 0.0316 µM) was 82.5%. The viability, T/C (second compound 0.01 µM, first compound 0.1 µM) was 82.7%, the viability, T/C (second compound 0.01 µM, first compound 0.316 µM) was 79.2% and the viability, T/C (second compound 0.01 µM, first compound 1 µM) was 67.6%. The viability, T/C (second compound 0.0316 µM, first compound 0.00316 µM) was 75.2%, the viability, T/C (second compound 0.0316 µM, first compound 0.01 µM) was 72.5% and the viability, T/C (second compound 0.0316 µM, first compound 0.0316 µM) was 76%. The viability, T/C (second compound 0.0316 µM, first compound 0.1 µM) was 57.3%, the viability, T/C (second compound 0.0316 µM, first compound 0.316 µM) was 59.6% and the viability, T/C (second compound 0.0316 µM, first compound 1 µM) was 53.3%. The viability, T/C (second compound 0.1 µM, first compound 0.00316 µM) was 57.4%, the viability, T/C (second compound 0.1 µM, first compound 0.01 µM) was 52.1% and the viability, T/C (second compound 0.1 µM, first compound 0.0316 µM) was 50.2%. For the same compound, the viability, T/C (second compound 0.1 µM, first compound 0.1 µM) was 47.3%, the viability, T/C (second compound 0.1 µM, first compound 0.316 µM) was 43.7% and the viability, T/C (second compound 0.1 µM, first compound 1 µM) was 35.2%. The viability, T/C (second compound 0.316 µM, first compound 0.00316 µM) was 46.5%, the viability, T/C (second compound 0.316 µM, first compound 0.01 µM) was 33.5% and the viability, T/C (second compound 0.316 µM, first compound 0.0316 µM) was 29.2%. It also gave a viability, T/C (second compound 0.316 µM, first compound 0.1 µM) of 27.2%, a viability, T/C (second compound 0.316 µM, first compound 0.316 µM) of 22.7% and a viability, T/C (second compound 0.316 µM, first compound 1 µM) of 24.1%. The viability, T/C (second compound 1 µM, first compound 0.00316 µM) was 21.2%, the viability, T/C (second compound 1 µM, first compound 0.01 µM) was 15.1% and the viability, T/C (second compound 1 µM, first compound 0.0316 µM) was 18.4%. The viability, T/C (second compound 1 µM, first compound 0.1 µM) was 15.5%, the viability, T/C (second compound 1 µM, first compound 0.316 µM) was 17.6% and the viability, T/C (second compound 1 µM, first compound 1 µM) was 19%.

Source: PubChem BioAssay AID1963965 (Molecular Pharmacology Branch, DTP, NCI, 2024)
